The target in this assay is recombinant HCV RNA-dependent RNA polymerase (NS5B protein) (Hepatitis C virus genotype 1b, UniProt P26663). Nature of the assay: biochemical. The arrangement: species or system HCV-Bk strain.

Counter-ions that a name gives are not always drawn. Like-named read-outs stand apart in the source and are kept apart here. Where only a bound is given, the exact number is not on record here.

Chain of recombinant HCV RNA-dependent RNA polymerase (NS5B protein) (P26663 2420-3010 limits assumed): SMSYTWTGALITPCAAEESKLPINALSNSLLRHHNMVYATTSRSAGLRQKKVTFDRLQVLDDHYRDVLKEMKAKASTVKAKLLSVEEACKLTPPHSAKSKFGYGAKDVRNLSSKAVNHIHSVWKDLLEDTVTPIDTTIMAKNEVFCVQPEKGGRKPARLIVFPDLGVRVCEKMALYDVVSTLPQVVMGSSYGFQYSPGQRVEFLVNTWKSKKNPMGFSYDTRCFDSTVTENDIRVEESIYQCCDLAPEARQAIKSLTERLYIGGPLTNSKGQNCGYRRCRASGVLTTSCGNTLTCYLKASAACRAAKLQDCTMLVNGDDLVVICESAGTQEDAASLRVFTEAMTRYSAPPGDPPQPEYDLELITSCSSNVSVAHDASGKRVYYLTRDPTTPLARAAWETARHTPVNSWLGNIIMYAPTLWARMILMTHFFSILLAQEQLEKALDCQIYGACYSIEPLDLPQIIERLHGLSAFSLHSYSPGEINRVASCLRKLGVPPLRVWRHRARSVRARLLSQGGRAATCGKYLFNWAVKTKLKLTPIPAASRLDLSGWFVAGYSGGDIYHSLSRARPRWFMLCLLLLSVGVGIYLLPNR

Take `C[C@H]1CC[C@H](C(=O)N(c2cc(-c3ccccc3)sc2C(=O)O)[C@H]2CCC[C@@H](O)C2)CC1` (stereo in doubt) [Compound 87, 3-[(3-hydroxy-cyclohexyl)-(4-methyl-cyclohexanecarbonyl)-amino]-5-phenyl-thiophene-2-carboxylic acid]: the half-maximal inhibitory concentration (IC50) is below 5 µM.

Consider `CS(=O)(=O)N1CCC(N(c2cc(-c3ccccc3)sc2C(=O)O)C(=O)[C@H]2CC[C@H](C)CC2)CC1` [Compound 70, 3-[(1-methanesulfonyl-piperidin-4-yl)-(4-methyl-cyclohexanecarbonyl)-amino]-5-phenyl-thiophene-2-carboxylic acid], for which the IC50 was below 5 µM.

On to `CCC(C)C(C[NH3+])N(C(=O)c1ccccc1Cl)c1cc(-c2ccccc2)sc1C(=O)O` (centres unmarked) [Compound 19, 2-[(2-carboxy-5-phenyl-thiophen-3-yl)-(2-chloro-benzoyl)-amino]-3-methyl-pentyl-ammonium trifluoroacetate], for which the half-maximal inhibitory concentration (IC50) is above 20 µM.

Take `CC1CCC(C(=O)N(c2cc(-c3ccccc3)sc2C(=O)O)C2CCN(C(N)=O)CC2)CC1` (centres unmarked) [Compound 81, 3-[(1-carbamoyl-piperidin-4-yl)-(4-methyl-cyclohexanecarbonyl)-amino]-5-phenyl-thiophene-2-carboxylic acid]: the IC50 was below 5 µM.

Regarding `CC1CCC(C(=O)N(CC2CCN(C)CC2)c2cc(-c3ccccc3)sc2C(=O)O)CC1` (centres unmarked) [Compound 38, 4-{[(2-carboxy-5-phenyl-thiophen-3-yl)-(4-methyl-cyclohexanecarbonyl)-amino]-methyl}-1-methyl-piperidinium chloride], the half-inhibitory concentration (IC50) was below 5 µM.

Turning to `CC1CCC(C(=O)N(c2cc(-c3ccccc3)sc2C(=O)O)[C@H]2CC[C@@H](C(=O)O)CC2)CC1` (some centres unmarked) [Compound 78, 3-[(4-carboxy-cyclohexyl)-(4-methyl-cyclohexanecarbonyl)-amino]-5-phenyl-thiophene-2-carboxylic acid], the half-maximal inhibitory concentration (IC50) is below 5 µM.

For the compound `COc1ccc(-c2cc(N(C(=O)C3CCC(C)CC3)C3CCC(O)CC3)c(C(=O)O)s2)cc1` (centres unmarked) [Compound 60, 3-[(4-hydroxy-cyclohexyl)-(4-methyl-cyclohexanecarbonyl)-amino]-5-(4-methoxy-phenyl)-thiophene-2-carboxylic acid], the 50% inhibitory concentration (IC50) is below 5 µM.

Take `CC1CCC(C(=O)N(c2cc(-c3cccc(F)c3)sc2C(=O)O)C(C)C)C(O)C1` (centres unmarked) [Compound 44, 5-(3-fluoro-phenyl)-3-[(2-hydroxy-4-methyl-cyclohexanecarbonyl)-isopropyl-amino]-thiophene-2-carboxylic acid]: the IC50 was below 5 µM.

For `C[C@H]1CC[C@H](C(=O)N(c2cc(-c3ccccc3)sc2C(=O)O)C2CC[S+]([O-])CC2)CC1` (relative stereo) [Compound 68, 3-[(trans-4-Methyl-cyclohexanecarbonyl)-(1-oxo-tetrahydro-thiopyran-4-yl)-amino]-5-phenyl-thiophene-2-carboxylic acid], the IC50 is below 5 µM.

For the compound `C[C@H]1CC[C@H](C(=O)N(c2cc(-c3ccccc3)sc2C(=O)O)[C@H]2CCC[C@H](O)C2)CC1` (stereo in doubt) [Compound 89, 3-[(3-hydroxy-cyclohexyl)-(4-methyl-cyclohexanecarbonyl)-amino]-5-phenyl-thiophene-2-carboxylic acid], the IC50 was below 5 µM.

With `CC1CCC(C(=O)N(c2cc(-c3ccccc3)sc2C(=O)O)C(C)CN=[N+]=[N-])CC1` (centres unmarked) [Compound 43, 3-[(2-azido-1-methyl-ethyl)-(4-methyl-cyclohexanecarbonyl)-amino]-5-phenyl-thiophene-2-carboxylic acid], the 50% inhibitory concentration (IC50) (read-out: Activity (polymerase activity, IC50)) is below 5 µM.

Turning to `C[C@H]1CC[C@H](C(=O)N(c2cc(-c3ccccc3)sc2C(=O)O)C2CCSCC2)CC1` [Compound 34, 3-[(trans-4-Methyl-cyclohexanecarbonyl)-(tetrahydro-thiopyran-4-yl)-amino]-5-phenyl-thiophene-2-carboxylic acid], the concentration for half-maximal inhibition (IC50) is below 5 µM.

For the compound `CCC(C)C(CN=[N+]=[N-])N(C(=O)c1ccc(Cl)cc1Cl)c1cc(-c2ccccc2)sc1C(=O)O` (centres unmarked) [Compound 18, 3-[(1-azidomethyl-2-methyl-butyl)-(2,4-dichloro-benzoyl)-amino]-5-phenyl-thiophene-2-carboxylic acid], the IC50 is below 5 µM.

As to `CC1(O)CCC(N(c2cc(-c3ccccc3)sc2C(=O)O)C(=O)[C@H]2CC[C@@H](C)CC2)CC1` (relative stereo) [Compound 86, cis-3-[(4-Hydroxy-4-methyl-cyclohexyl)-(4-methyl-cyclohexanecarbonyl)-amino]-5-phenyl-thiophene-2-carboxylic acid], the IC50 was below 5 µM.

Regarding `CC1CCC(C(=O)N(CC2CCCCN2)c2cc(-c3ccccc3)sc2C(=O)O)CC1` (centres unmarked) [Compound 2, 2-{[(2-carboxy-5-phenyl-thiophen-3-yl)-(4-methyl-cyclohexanecarbonyl)-amino]-methyl}-piperidinium; trifluoro-acetate], the IC50 is below 5 µM.

For `CC1=CCC(C(=O)N(c2cc(-c3ccccc3)sc2C(=O)O)C(C)C)OC1` (centres unmarked) [Compound 30, 3-[isopropyl-(5-methyl-3,6-dihydro-2H-pyran-2-carbonyl)-amino]-5-phenyl-thiophene-2-carboxylic acid], the half-inhibitory concentration (IC50) was below 5 µM.

For the compound `CC1CCC(C(=O)N(Cc2ccncc2)c2cc(-c3ccccc3)sc2C(=O)O)CC1` (centres unmarked) [Compound 4, 3-[(4-methyl-cyclohexanecarbonyl)-pyridin-4-ylmethyl-amino]-5-phenyl-thiophene-2-carboxylic acid], the IC50 was below 5 µM.

For `CC1CCC(C(=O)N(c2cc(-c3ccc(C#N)cc3)sc2C(=O)O)C2CCC(O)CC2)CC1` (centres unmarked) [Compound 61, 5-(4-cyano-phenyl)-3-[(4-hydroxy-cyclohexyl)-(4-methyl-cyclohexanecarbonyl)-amino]-thiophene-2-carboxylic acid], the concentration for half-maximal inhibition (IC50) was below 5 µM.

For the compound `CC(=O)N1CCC(N(C(=O)C2CCC(C)CC2)c2cc(-c3ccccc3)sc2C(=O)O)CC1` (centres unmarked) [Compound 48, 3-[(1-acetyl-piperidin-4-yl)-(4-methyl-cyclohexanecarbonyl)-amino]-5-phenyl-thiophene-2-carboxylic acid], the concentration for half-maximal inhibition (IC50) was below 5 µM.

For the compound `CC1CCC(C(=O)N(c2cc(-c3cccc(F)c3)sc2C(=O)O)C2CCC(O)CC2)CC1` (centres unmarked) [Compound 51, 5-(3-fluoro-phenyl)-3-[(4-hydroxy-cyclohexyl)-(4-methyl-cyclohexanecarbonyl)-amino]-thiophene-2-carboxylic acid], the IC50 is below 5 µM.

Regarding `C=C1CCC(C(=O)N(c2cc(-c3ccccc3)sc2C(=O)O)C(C)C)CC1` [Compound 28, 3-[isopropyl-(4-methylene-cyclohexanecarbonyl)-amino]-5-phenyl-thiophene-2-carboxylic acid], the IC50 is below 5 µM.

Turning to `CC1CCC(C(=O)N(c2cc(-c3ccccc3)sc2C(=O)O)C2CCN(C#N)CC2)CC1` (centres unmarked) [Compound 77, 3-[(1-cyano-piperidin-4-yl)-(4-methyl-cyclohexanecarbonyl)-amino]-5-phenyl-thiophene-2-carboxylic acid], the IC50 is below 5 µM.

As to `C[C@H]1CC[C@H](C(=O)N(c2cc(-c3ccc(F)c(F)c3)sc2C(=O)O)[C@H]2CC[C@H](O)CC2)CC1` [Compound 79, 5-(3,4-difluoro-phenyl)-3-[(4-hydroxy-cyclohexyl)-(4-methyl-cyclohexanecarbonyl)-amino]-thiophene-2-carboxylic acid], the IC50 is below 5 µM.

The IC50 is the point on the concentration scale where inhibition reaches its midpoint.
